Test results from patent US7923248B2, “Methods for producing microspore derived doubled haploid apiaceae” (NRC, priority 2005, dated 2011).

System: isolated microspores of vegetable fennel (VF-2)
Experiment: Isolated microspore culture of fennel with EBR in the medium (embryo formation)
Assay type: cell-based, fennel (Foeniculum vulgare)
Settings: FIG. 5
Experimental: FIG. 5. Effect of 24-Epibrassinolide on microspore embryogenesis of vegetable fennel (VF-2). A=NLN-25; B=NLN-25+0.1 mM EBR; C=NLN-25+1.0 mM EBR; D=NLN-25 changed to NLN-10; E=NLN-25+0.1 mM EBR changed to NLN-10; and F=NLN-25+1.0 mM EBR changed to NLN-10.
Several basal media were compared for fennel microspore embryogenesis. Donor plants for microspore culture were grown as described herein. Flower buds were measured and buds in the range of 1-3 mm were put into Lipshaw baskets. The Lipshaw baskets were immersed for one minute in 70% ethanol in a sterile beaker and placed on a shaker. After one minute, the ethanol was removed and the baskets containing the buds were rinsed with sterile water. The Lipshaw baskets were immersed for 15 min in 6% sodium hypochlorite in a sterile beaker placed on a shaker. After 15 min, the sodium hypochlorite was removed by three 5-min washes with sterile water. The buds were removed from the Lipshaw baskets with sterile forceps and placed in a mortar with 5 mL of half-strength Gamborg B5 medium with 13% sucrose. The buds were gently crushed with a pestle, and the resulting suspension was filtered through a 44 μm nylon screen cloth into a 50 mL sterile centrifuge tube. The mortar and filter were rinsed three times with 5 mL of half-strength B5-13 which was filtered and added to the suspension to a total of 20 mL. […]

`CC(C)[C@@H](C)[C@@H](O)[C@H](O)[C@@H](C)[C@H]1CC[C@H]2[C@@H]3COC(=O)[C@H]4C[C@H](O)[C@H](O)C[C@]4(C)[C@H]3CC[C@]12C` [24 EBR, 24-epibrassinolide] was tested. Which “fennel embryo formation (microspore embryogenesis)” value (continued exposure to EBR, NLN-25 medium, 32° C. for 3 days then 24° C.) did it give?
Its value is “somewhat inhibitory”.

And the “fennel embryo formation (microspore embryogenesis)” value (media change after 72 h to a lower sucrose concentration and removal of the EBR)?
Its value is “stimulatory”.
